Results published in ChEMBL document CHEMBL1909046, “DrugMatrix in vitro pharmacology data”.

Key:
[1] = target: T1, D(4) dopamine receptor (Homo sapiens, UniProt P21917); assay: DRUGMATRIX: Dopamine D4.2 radioligand binding (ligand: [3H] Spiperone); format: cell membranes, CHO-K1, Membrane; details: cho-k1; Not Active = under 50% inhibition at 10 µM
T1 sequence (P21917 whole entry): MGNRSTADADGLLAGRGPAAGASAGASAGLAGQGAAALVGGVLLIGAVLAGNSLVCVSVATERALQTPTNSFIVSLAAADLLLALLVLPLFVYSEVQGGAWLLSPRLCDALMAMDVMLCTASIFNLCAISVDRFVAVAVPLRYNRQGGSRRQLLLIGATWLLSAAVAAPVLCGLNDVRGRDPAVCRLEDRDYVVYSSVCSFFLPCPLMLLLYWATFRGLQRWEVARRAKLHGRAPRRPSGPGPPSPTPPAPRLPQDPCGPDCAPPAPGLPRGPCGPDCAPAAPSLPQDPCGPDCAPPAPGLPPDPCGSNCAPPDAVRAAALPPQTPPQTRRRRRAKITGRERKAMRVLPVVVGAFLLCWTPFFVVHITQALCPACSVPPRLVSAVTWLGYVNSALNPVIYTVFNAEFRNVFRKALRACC

[2] = target: 5-hydroxytryptamine receptor 6 (Homo sapiens, UniProt P50406); format: cell membranes, HeLa, Membrane; also: in other assays of this panel Not Active means under 50% inhibition at 10 µM
Chain of 5-hydroxytryptamine receptor 6 (P50406 whole entry): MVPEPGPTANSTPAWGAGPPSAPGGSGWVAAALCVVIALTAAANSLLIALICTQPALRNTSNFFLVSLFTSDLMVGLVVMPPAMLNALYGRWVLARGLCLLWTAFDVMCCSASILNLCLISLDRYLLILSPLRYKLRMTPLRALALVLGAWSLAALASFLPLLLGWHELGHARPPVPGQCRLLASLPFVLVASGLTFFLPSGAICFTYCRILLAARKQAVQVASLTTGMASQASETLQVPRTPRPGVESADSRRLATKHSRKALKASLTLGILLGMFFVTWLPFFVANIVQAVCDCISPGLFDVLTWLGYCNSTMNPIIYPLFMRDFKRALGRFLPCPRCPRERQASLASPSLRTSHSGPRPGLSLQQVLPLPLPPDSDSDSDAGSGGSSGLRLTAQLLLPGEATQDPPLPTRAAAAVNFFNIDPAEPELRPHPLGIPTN

[3] = target: Vasopressin V1a receptor (Homo sapiens, UniProt P37288); format: cell membranes, Membrane; details: hek293; also: in other assays of this panel Not Active means under 50% inhibition at 10 µM
Chain of Vasopressin V1a receptor (P37288 whole entry): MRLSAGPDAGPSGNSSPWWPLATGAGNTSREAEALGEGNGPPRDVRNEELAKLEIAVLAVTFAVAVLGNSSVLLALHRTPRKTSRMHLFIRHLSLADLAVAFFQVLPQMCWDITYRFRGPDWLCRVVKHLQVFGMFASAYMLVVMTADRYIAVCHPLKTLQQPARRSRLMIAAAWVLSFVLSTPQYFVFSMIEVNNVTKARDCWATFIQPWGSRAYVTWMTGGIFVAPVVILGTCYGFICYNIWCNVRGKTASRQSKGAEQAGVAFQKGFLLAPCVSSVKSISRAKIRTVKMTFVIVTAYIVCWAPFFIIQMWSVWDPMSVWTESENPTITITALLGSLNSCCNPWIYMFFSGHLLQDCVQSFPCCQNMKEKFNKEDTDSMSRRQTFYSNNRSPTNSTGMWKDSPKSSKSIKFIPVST

[4] = target: Insulin receptor (Rattus norvegicus, UniProt P15127); format: cell membranes, Wistar, Liver, Membrane; also: in other assays of this panel Not Active means under 50% inhibition at 10 µM
Chain of Insulin receptor (P15127 27-759 limits assumed): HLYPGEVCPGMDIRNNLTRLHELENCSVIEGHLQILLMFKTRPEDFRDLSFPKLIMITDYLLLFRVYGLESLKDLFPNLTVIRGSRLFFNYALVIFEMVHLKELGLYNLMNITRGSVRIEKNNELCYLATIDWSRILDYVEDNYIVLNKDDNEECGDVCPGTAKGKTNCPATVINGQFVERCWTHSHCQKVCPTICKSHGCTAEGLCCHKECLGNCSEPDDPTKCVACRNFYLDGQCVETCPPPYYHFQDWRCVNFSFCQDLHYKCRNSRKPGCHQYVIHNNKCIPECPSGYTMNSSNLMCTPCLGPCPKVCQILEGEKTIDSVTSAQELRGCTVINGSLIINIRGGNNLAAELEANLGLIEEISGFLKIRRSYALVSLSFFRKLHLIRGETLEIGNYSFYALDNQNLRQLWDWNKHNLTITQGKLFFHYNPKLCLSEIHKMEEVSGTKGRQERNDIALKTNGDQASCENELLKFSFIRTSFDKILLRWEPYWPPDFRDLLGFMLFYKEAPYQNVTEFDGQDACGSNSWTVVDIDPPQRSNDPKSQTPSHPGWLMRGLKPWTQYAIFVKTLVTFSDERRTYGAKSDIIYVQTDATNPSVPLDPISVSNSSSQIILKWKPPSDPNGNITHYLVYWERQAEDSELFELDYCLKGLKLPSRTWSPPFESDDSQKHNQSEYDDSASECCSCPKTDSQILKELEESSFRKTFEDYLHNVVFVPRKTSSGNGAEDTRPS
Chain of Insulin receptor (P15127 764-1383 limits assumed): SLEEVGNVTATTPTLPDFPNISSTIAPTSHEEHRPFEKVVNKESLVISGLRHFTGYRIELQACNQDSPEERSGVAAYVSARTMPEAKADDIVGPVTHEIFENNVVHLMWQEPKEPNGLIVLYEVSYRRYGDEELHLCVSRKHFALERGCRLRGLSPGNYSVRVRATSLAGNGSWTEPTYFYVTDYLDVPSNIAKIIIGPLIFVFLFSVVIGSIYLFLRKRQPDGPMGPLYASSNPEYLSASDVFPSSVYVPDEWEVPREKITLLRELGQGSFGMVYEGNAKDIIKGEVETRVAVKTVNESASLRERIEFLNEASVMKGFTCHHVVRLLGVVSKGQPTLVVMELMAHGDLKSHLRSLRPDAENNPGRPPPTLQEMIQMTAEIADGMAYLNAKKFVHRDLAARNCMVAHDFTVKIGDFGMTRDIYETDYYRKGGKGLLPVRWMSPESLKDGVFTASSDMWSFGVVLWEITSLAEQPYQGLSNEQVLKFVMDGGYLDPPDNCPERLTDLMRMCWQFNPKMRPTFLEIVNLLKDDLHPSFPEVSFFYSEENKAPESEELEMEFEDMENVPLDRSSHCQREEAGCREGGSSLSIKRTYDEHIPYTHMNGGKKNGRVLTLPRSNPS

[5] = target: Tyrosine-protein kinase Lck (Homo sapiens, UniProt P06239); assay: DRUGMATRIX: Protein Tyrosine Kinase, LCK enzyme inhibition (substrate: Poly(Glu:Tyr)); format: cell-based, Insect cells; details: insect cells; Not Active = under 50% inhibition at 10 µM
Chain of Tyrosine-protein kinase Lck (P06239 whole entry): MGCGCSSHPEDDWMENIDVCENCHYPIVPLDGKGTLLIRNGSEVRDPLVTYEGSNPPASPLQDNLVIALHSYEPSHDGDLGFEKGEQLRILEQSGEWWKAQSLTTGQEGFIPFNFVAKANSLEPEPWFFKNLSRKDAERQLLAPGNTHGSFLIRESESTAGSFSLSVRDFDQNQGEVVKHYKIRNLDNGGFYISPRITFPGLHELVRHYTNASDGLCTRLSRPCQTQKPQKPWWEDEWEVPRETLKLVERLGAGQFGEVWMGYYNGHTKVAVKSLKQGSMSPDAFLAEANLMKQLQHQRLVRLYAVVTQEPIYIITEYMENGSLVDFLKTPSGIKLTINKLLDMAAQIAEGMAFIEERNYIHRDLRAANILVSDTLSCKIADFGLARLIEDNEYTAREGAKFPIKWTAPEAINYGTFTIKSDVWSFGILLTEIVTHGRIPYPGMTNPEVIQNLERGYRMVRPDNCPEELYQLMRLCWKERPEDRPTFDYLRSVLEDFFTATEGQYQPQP

[6] = target: T2, Type-2 angiotensin II receptor (Homo sapiens, UniProt P50052); format: cell-based; details: cho-k1; also: in other assays of this panel Not Active means under 50% inhibition at 10 µM
T2 sequence (P50052 whole entry): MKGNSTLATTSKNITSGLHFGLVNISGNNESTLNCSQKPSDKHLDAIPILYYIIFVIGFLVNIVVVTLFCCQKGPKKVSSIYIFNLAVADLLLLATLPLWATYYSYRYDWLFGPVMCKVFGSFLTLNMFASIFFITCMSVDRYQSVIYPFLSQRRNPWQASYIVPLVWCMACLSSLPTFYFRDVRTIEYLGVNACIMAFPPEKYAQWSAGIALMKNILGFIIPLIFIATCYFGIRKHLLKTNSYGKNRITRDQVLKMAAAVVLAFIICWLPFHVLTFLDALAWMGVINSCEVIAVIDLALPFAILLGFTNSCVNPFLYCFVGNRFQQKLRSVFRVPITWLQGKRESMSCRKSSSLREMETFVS

[7] = target: T3, Vasoactive intestinal polypeptide receptor 1 (Homo sapiens, UniProt P32241); format: cell membranes, Membrane; details: ht-29; also: in other assays of this panel Not Active means under 50% inhibition at 10 µM
T3 sequence (P32241 whole entry): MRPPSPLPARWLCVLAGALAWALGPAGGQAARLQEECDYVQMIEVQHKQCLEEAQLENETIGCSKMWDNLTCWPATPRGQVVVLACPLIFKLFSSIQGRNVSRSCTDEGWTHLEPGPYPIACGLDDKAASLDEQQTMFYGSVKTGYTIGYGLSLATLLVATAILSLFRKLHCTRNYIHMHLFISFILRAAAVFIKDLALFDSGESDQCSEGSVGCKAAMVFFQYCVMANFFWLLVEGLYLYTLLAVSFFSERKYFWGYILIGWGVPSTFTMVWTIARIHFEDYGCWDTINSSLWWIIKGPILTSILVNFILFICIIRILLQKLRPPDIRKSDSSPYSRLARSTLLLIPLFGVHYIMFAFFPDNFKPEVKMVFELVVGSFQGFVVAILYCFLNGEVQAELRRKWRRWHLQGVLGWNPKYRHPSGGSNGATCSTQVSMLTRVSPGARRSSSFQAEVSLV

Compound	IC50 [1]	IC50 ([2]; hela)	IC50 [3]	IC50 [4]	IC50 [5]	IC50 [6]	IC50 [7]	IC50 ([2]; read-out: IC50) [nM]	Ki ([2]; read-out: Ki) [nM]	Ki [5]
Cc1cccc(C)c1NC(=O)C(C)N (configuration not stated) [TOCAINIDE]	Not Active	Not Active	Not Active	Not Active	Not Active	Not Active	Not Active			
Cc1cc2c(s1)Nc1ccccc1N=C2N1CCN(C)CC1 [OLANZAPINE]	Not Active		Not Active	Not Active	Not Active	Not Active	Not Active			
COC(=O)Nc1nc2ccc(C(=O)c3ccccc3)cc2[nH]1 [MEBENDAZOLE]	Not Active	Not Active	Not Active	Not Active	Not Active	Not Active	Not Active			
O=C1CC[C@@]2(O)[C@H]3Cc4ccc(O)c5c4[C@@]2(CCN3CC2CC2)[C@H]1O5 [NALTREXONE]	Not Active	Not Active	Not Active	Not Active	Not Active	Not Active	Not Active			
CCN(CC)CCNC(=O)c1cc(Cl)c(N)cc1OC [METOCLOPRAMIDE]	Not Active	Not Active	Not Active	Not Active	Not Active	Not Active	Not Active			
CCOc1cc(N)c(Cl)cc1C(=O)NCC1CN(Cc2ccc(F)cc2)CCO1 (configuration not stated) [MOSAPRIDE]	Not Active	Not Active	Not Active	Not Active	Not Active	Not Active	Not Active			
Cc1ccc(Cl)c(Nc2ccccc2C(=O)O)c1Cl [MECLOFENAMIC ACID]	Not Active	Not Active	Not Active	Not Active	Not Active	Not Active	Not Active			
CN1C[C@H](CNC(=O)OCc2ccccc2)C[C@@H]2c3cccc4c3c(cn4C)C[C@H]21 [METERGOLINE]	Not Active		Not Active	Not Active	Not Active	Not Active	Not Active	28	13	
O=[As][O-].[Na+] [SODIUM ARSENITE]	Not Active	Not Active	Not Active	Not Active	Not Active	Not Active	Not Active			
CC(=O)O[C@]1(C(C)=O)CC[C@H]2[C@@H]3C[C@H](C)C4=CC(=O)CC[C@]4(C)[C@H]3CC[C@@]21C [MEDROXYPROGESTERONE ACETATE]	Not Active	Not Active	Not Active	Not Active	Not Active	Not Active	Not Active			
CCN1CCCC1CNC(=O)c1cc(S(N)(=O)=O)ccc1OC (configuration not stated) [SULPIRIDE]	Not Active	Not Active	Not Active	Not Active	Not Active	Not Active	Not Active			
CC(O)C(=O)O (configuration not stated) [LACTIC ACID]	Not Active	Not Active	Not Active	Not Active	Not Active	Not Active	Not Active			
CC(Cl)(Cl)Cl [TRICHLOROETHANE]	Not Active	Not Active	Not Active	Not Active	Not Active	Not Active	Not Active			
CN(C)CCC=C1c2ccccc2COc2ccccc21 [DOXEPIN]	Not Active		Not Active	Not Active		Not Active	Not Active			Not Active
